The subject of assay [1] is RRE. The experiment in a line: Fluorescence titration / evaluation of binding with RRE. Set-up: species or system HIV-1. As for the experimental part:
In this Example, binding between RRE and X2S was evaluated by a method identical to the method in Example 2.
The […] of RRE is shown in SEQ ID NO: 8. […] RRE was purchased from Hokkaido System Science Co., Ltd.
Firstly, the X2S solution obtained in Example 1 was diluted with a cacodylate buffer solution (sodium cacodylate: 10 mM, pH 7.0; NaCl: 100 mM), so that a concentration of X2S became 2 μM. To the 2-μM X2S solution thus obtained, RRE was added in steps at 0 μM, 1 μM, 2 μM, 3 μM, 4 μM, 5 μM, 6 μM, and 8 μM. Further, a fluorescence intensity of the 2-μM X2S solution was measured at each concentration. The fluorescence intensity was measured in the same manner as in Example 2.
FIG. 7 is a view illustrating a result of evaluation of binding between X2S and RRE. In FIG. 7, the horizontal axis represents the fluorescence wavelength, whereas the vertical axis represents the fluorescence intensity. […] Other figures include such arrows for results of measurements of fluorescence intensities.
FIG. 8 is a view plotting the fluorescence intensities at a measured wavelength of 453 nm shown in the result illustrated in FIG. 7. The horizontal axis represents the concentration of RRE, whereas the vertical axis represents the fluorescence intensity.
Then, changes in fluorescence intensities were observed.
Firstly, X2S, X2S(3), X2S(4), X2S(5), X2S(2-Me), and 3,6-X2S(2) were respectively mixed with cacodylate buffer solutions (sodium cacodylate: 10 mM, pH 7.0; NaCl: 100 mM) each at 1.0 μM, so that solutions of the respective compounds were obtained. RRE used in this Example was the same as that used in Example 4. RRE was added to each of the solutions of the respective compounds in steps at 0.0 μM, 0.2 μM, 0.4 μM, 0.8 μM, and 1.0 μM.
Each of the solutions to which RRE was added was irradiated with light, and a fluorescence intensity was measured. A device used for measuring the fluorescence intensity was the same as that used in Example 13. A variation in a slit width was also the same as that in Example 14.
FIG. 39 is a graph illustrating a relationship between a concentration of RRE added and a fluorescence intensity of each compound. Further, FIG. 39 is also a view plotting the fluorescence intensities of the respective fluorescence peaks shown in the results illustrated in FIGS. 33 to 38. FIG. 40 is a view plotting residual fluorescence intensities (%) which were obtained based on the results shown in FIGS. 33 to 38, assuming that the fluorescence intensities of the respective fluorescence peaks observed at a concentration of 0.0 μM of RRE were 100%. In each of FIGS. 39 and 40, the horizontal axis represents the concentration of the RNA. In FIG. 39, the vertical axis represents the fluorescence intensity. In FIG. 40, the vertical axis represents the residual fluorescence intensity (%).
FIG. 41 is a view plotting values obtained by dividing (i) the residual fluorescence intensities (%) obtained in the case involving use of the double strand RNA by (ii) the residual fluorescence intensities (%) obtained in the case involving use of RRE. That is, FIG. 41 is a view plotting values obtained by dividing (i) the residual fluorescence intensity (%) shown in FIG. 32 by (ii) the residual fluorescence intensities (%) shown in FIG. 40. FIG. 42 is a view plotting values obtained by subtracting (i) the residual fluorescence intensities (%) obtained in the case involving use of RRE from (ii) the residual fluorescence intensities (%) obtained in the case involving use of the double strand RNA. That is, FIG. 42 is a view plotting values obtained by subtracting (i) the residual fluorescence intensities (%) shown in FIG. 40 from (ii) the residual fluorescence intensities (%) shown in FIG. 32.
In this Example, 1-Pyrenemethanamide, hydrochloride was caused to bind to a double strand RNA or RRE. Then, a change in a fluorescence intensity was observed. […]

Assay [2] deals with single strand RNA (ssRNA), SEQ ID NO: 7. The experiment in a line: Binding between X2S and single strand RNA. As for the experimental part:
In this Example, binding between X2S and a single strand RNA (hereinafter, referred to as “ssRNA”) was evaluated. Specifically, the evaluation was performed in the same manner as that described in Example 2. However, the evaluation performed in this Example differed from that performed in Example 2 in the following points: Instead of the double strand RNA, an ssRNA was used; The ssRNA was added in steps at 0 μM, 1 μM, 2 μM, 3 μM, 4 μM, 5 μM, 6 μM, 7 μM, and 8 μM; The ssRNA was purchased from: Hokkaido System Science Co., Ltd. The sequence of the ssRNA is shown in SEQ ID NO: 7.
FIG. 18 is a view illustrating the result of the evaluation of binding between X2S and the ssRNA. The horizontal axis represents the fluorescence wavelength, whereas the vertical axis represents the fluorescence intensity.

For `NCCOc1ccc2oc3ccc(OCCN)cc3c(=O)c2c1` [X2S, 2,7-bis(2-aminoethoxy)xanthen-9-one], the “reduction of fluorescence intensity (residual fluorescence intensity) on binding RRE” value in assay [1] (1.0 μM compound, RRE 0.0-1.0 μM) is listed as “particularly high reduction rates”. Also, in assay [1] (2 μM X2S, RRE 0-8 μM, 453 nm), the “fluorescence of X2S on binding to RRE” value was “fluorescence of X2S is quenched”. In addition, in assay [1] (FIGS. 41 and 42, 1.0 μM compound), the “difference in quenching efficiency between RRE and double strand RNA” value was “greatest”. Moreover, the “amount of change of fluorescence intensity” value in assay [2] (0 μM versus 8 μM ssRNA) is reported as “approximately 50%”. In addition, the “binding to ssRNA” value in assay [2] (ssRNA 0-8 μM) is recorded as “binds to an ssRNA”.
